From patent US20220251081A1, “HETEROBICYCLIC INHIBITORS OF MAT2A AND METHODS OF USE FOR TREATING CANCER” (priority 2019, published 2022) come the findings set out here.

The subject of test [1] is HCT116 MTAP +/+. Nature of the test: Inhibition of cellular proliferation, 4 days, Cell Titer Glo, HCT116 MTAP+/+. It is filed as cell-based. Particulars: Homo sapiens, HCT-116, 96 h, IC50 score, read-out: 4 Day Relative Growth Inhibition (MTAP +/+). Summed up:
(§1)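 Isogenic human colon carcinoma lines differing only in MTAP status, plated 24 h before dosing, then exposed for 4 days at 37 °C/5% CO2 to a 10-point 3-fold dilution series (0.2% DMSO final). Read-out is Cell Titer Glo ATP luminescence, blank-subtracted and normalised to in-plate DMSO control, plotted as % proliferation change versus log molar concentration.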
A general note: In ATP-based viability assays light output follows the ATP content of the culture.

In test [2] the test system is SAM in HCT116 human colon carcinoma cell line with deleted MTAP gene. Nature of the test: Cellular assay of target engagement (SAM): SAM level by LC-MS/MS after 72 hrs. It is filed as cell-based. Particulars: HCT-116, IC50 score, read-out: Cell 72 h SAM Inhibition (MTAP −/−). The method in brief: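 MTAP-deleted HCT116 cells were seeded, then exposed 24 h later to a 10-point 3-fold compound dilution series for 72 h at 37 °C/5% CO2. They were lysed in cold 80% methanol/acetic acid containing d3-SAM internal standard. SAM was quantified by LC-MS/MS (MRM, m/z 399.2→250.1).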

For test [3], the target named is T1, MAT2A homodimer (Homo sapiens, UniProt P31153).
T1 construct: inferred from Ni sepharose purification and imidazole elution; made in house; host or cells: Sf9 insect cells, recombinant baculovirus (Bac to Bac, pFASTBAC1 vector)
As to the kind of experiment: Biochemical assay: inhibition of recombinant MAT2A homodimer (phosphate release, PiColorLock Gold). Particulars: MAT2A IC50 score; read-out: Enzyme Inhibition. The method in brief: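 Baculovirus/Sf9-expressed, Ni-purified MAT2A at 4 μg/mL in pH 8.0 Tris/KCl/MgCl2/EDTA/BSA buffer, preincubated with compound 60 min at 25 °C. Started with ATP and L-methionine substrate mix (500 μM and 40 μM, stock in mix), 60 min at 25 °C; released phosphate by PiColorLock Gold against a phosphate standard curve.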

Test [4] deals with HCT116 MTAP-/-. Nature of the test: Inhibition of cellular proliferation, 4 days, Cell Titer Glo, HCT116 MTAP-/-. It is filed as cell-based. Particulars: Homo sapiens, HCT-116, 96 h, IC50 score, read-out: 4 Day Relative Growth Inhibition (MTAP −/−). Summed up:
as §1

Each structure is given as a SMILES string. Where only a bound is given, the exact number is not on record here.

T1 sequence (P31153 whole entry): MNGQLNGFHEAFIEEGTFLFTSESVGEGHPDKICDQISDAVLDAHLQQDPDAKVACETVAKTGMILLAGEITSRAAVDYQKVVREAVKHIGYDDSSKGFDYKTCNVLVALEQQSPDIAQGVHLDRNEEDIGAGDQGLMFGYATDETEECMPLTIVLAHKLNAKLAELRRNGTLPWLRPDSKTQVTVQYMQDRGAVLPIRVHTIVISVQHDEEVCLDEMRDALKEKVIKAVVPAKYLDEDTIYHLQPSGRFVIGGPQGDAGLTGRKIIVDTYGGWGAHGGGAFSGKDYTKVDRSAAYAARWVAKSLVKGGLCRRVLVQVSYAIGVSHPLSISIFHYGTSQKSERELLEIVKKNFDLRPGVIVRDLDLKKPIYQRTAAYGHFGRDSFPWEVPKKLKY

With `[2H]C([2H])([2H])Oc1ccc(-n2c(=O)c(-c3ccc4nn(C)cc4c3)nc3ccc(OCC)nc32)cc1` [Example 324], the IC50 was 100 to 1000 nM in test [1], less than 100 nM in test [2], less than 100 nM in test [3] and less than 100 nM in test [4].
Consider `[2H]C([2H])([2H])Oc1ccc(-n2c(=O)c(-c3ccc4nn(C)cc4c3)nc3ccc(OCC(F)F)nc32)cc1` [Example 325], for which the IC50 was no less than 1000 nM in test [1], less than 100 nM in test [2], less than 100 nM in test [3] and less than 100 nM in test [4].
For the compound `[2H]C([2H])([2H])Oc1ccc(-n2c(=O)c(-c3ccc4nn(C)cc4c3)nc3ccc(OCC(F)(F)F)nc32)cc1` [Example 326], the IC50 in test [1] is no less than 1000 nM; in test [2] it was less than 100 nM; in test [3], less than 100 nM; in test [4], less than 100 nM.
For `COc1ccc(-n2c(=O)c(-c3ccc4nn(C)cc4c3)nc3ccc(OCC(F)(F)F)nc32)cc1` [Example 327], the IC50 in test [1] is no less than 1000 nM; in test [2], less than 100 nM; in test [3] it was less than 100 nM; in test [4], less than 100 nM.
In the case of `Cn1cc2cc(-c3nc4ccc(OCC(F)(F)F)nc4n(-c4ccc(OC(F)F)cc4)c3=O)ccc2n1` [Example 328], the IC50 is no less than 1000 nM in test [1], less than 100 nM in test [2], less than 100 nM in test [3] and less than 100 nM in test [4].
As for `Cn1cc2cc(-c3nc4ccc(OCC(F)(F)F)nc4n(-c4ccc(C5CC5)cc4)c3=O)ccc2n1` [Example 329], the IC50 in test [1] is no less than 1000 nM; in test [2], less than 100 nM; in test [3], less than 100 nM; in test [4], less than 100 nM.
For `CCOc1ccc2nc(-c3ccc4nn(C)cc4c3)c(=O)n(-c3ccc(C4CC4)cc3)c2n1` [Example 330], the IC50 was no less than 1000 nM in test [1], less than 100 nM in test [2], less than 100 nM in test [3] and less than 100 nM in test [4].
With `[2H]C([2H])([2H])Oc1ccc(-n2c(=O)c(-c3ccc4nn(C)cc4c3)nc3ccc(OC(C)C)nc32)cc1` [Example 331], the IC50 in test [1] is no less than 1000 nM; in test [2], less than 100 nM; in test [3], less than 100 nM; in test [4], less than 100 nM.
`Cn1cc2cc(-c3nc4ccc(OCC(F)(F)F)nc4n(-c4ccc(C5CC5)nc4)c3=O)ccc2n1` [Example 332]: the IC50 was no less than 1000 nM in test [1], less than 100 nM in test [2], less than 100 nM in test [3] and less than 100 nM in test [4].
In the case of `Cc1ccc(-n2c(=O)c(-c3ccc4nn(C)cc4c3)nc3ccc(OCC(F)(F)F)nc32)cn1` [Example 333], the IC50 was no less than 1000 nM in test [1], less than 100 nM in test [2], less than 100 nM in test [3] and 100 to 1000 nM in test [4].
On to `COc1ccc(-n2c(=O)c(-c3ccc4nn(CCO)cc4c3)nc3ccc(OCC(F)(F)F)nc32)cc1` [Example 335, 2-(2-(2-hydroxyethyl)-2H-indazol-5-yl)-4-(4-methoxyphenyl)-6-(2,2,2-trifluoroethoxy)pyrido[2,3-b]pyrazin-3(4H)-one], for which the IC50 in test [1] is no less than 1000 nM; in test [2], less than 100 nM; in test [3], less than 100 nM; in test [4], less than 100 nM.
With `CCNc1ccc2nc(-c3ccc4nn(C)cc4c3)c(=O)n(-c3ccc(OC(F)F)cc3)c2n1` [Example 338], the IC50 in test [1], in test [2], in test [3] and in test [4] was less than 100 nM throughout.
For the compound `COc1ccc(-n2c(=O)c(-c3ccc4nc(C)n(C)c4c3)nc3ccc(OCC(F)(F)F)nc32)cc1` [Example 340], the IC50 is no less than 1000 nM in test [1], less than 100 nM in test [2], less than 100 nM in test [3] and less than 100 nM in test [4].
`CCNc1ccc2nc(-c3ccc4nn(C)cc4c3)c(=O)n(-c3ccc(OC)cc3)c2n1` [Example 341]: the IC50 in test [1] is no less than 1000 nM; in test [2] it was less than 100 nM; in test [3] it was less than 100 nM; in test [4] it was less than 100 nM.
Take `[2H]C([2H])([2H])Oc1ccc(-n2c(=O)c(-c3ccc4nn(C)cc4c3)cc3ncc(OCC)nc32)cc1` [Example 342]: the IC50 was 100 to 1000 nM in test [1], less than 100 nM in test [2], less than 100 nM in test [3] and less than 100 nM in test [4].
For the compound `COc1ccc(-n2c(=O)c(-c3ccc4nn(C)cc4c3)cc3ncc(OCC(F)(F)F)nc32)cc1` [Example 343, 5-(4-methoxyphenyl)-7-(2-methyl-2H-indazol-5-yl)-3-(2,2,2-trifluoroethoxy)pyrido[2,3-b]pyrazin-6(5H)-one], the IC50 was no less than 1000 nM in test [1], less than 100 nM in test [2], less than 100 nM in test [3] and less than 100 nM in test [4].
As for `[2H]C([2H])([2H])Oc1ccc(-n2c(=O)c(-c3ccc4nn(C)cc4c3)cc3ncc(OCC(F)F)nc32)cc1` [Example 344], the IC50 in test [1] is no less than 1000 nM; in test [2], less than 100 nM; in test [3], less than 100 nM; in test [4] it was less than 100 nM.
In the case of `[2H]C([2H])([2H])Oc1ccc(-n2c(=O)c(-c3ccc4nn(C)cc4c3)cc3ncc(OCC(F)(F)F)nc32)cc1` [Example 345], the IC50 in test [1] is no less than 1000 nM; in test [2], less than 100 nM; in test [3] it was less than 100 nM; in test [4], 100 to 1000 nM.
`Cn1cc2cc(-c3nc4ccc(OCC(F)(F)F)nc4n(-c4ccc(Br)cc4)c3=O)ccc2n1` [Example 346, 4-(4-bromophenyl)-2-(2-methyl-2H-indazol-5-yl)-6-(2,2,2-trifluoroethoxy)pyrido[2,3-b]pyrazin-3(4H)-one]: the IC50 in test [1] was no less than 1000 nM; in test [2], less than 100 nM; in test [3], less than 100 nM; in test [4], less than 100 nM.
For `COc1ccc(-n2c(=O)c(-c3ccc4nn(CCN)cc4c3)nc3ccc(OCC(F)(F)F)nc32)cc1` [Example 347, 2-(2-(2-aminoethyl)-2H-indazol-5-yl)-4-(4-methoxyphenyl)-6-(2,2,2-trifluoroethoxy)pyrido[2,3-b]pyrazin-3(4H)-one], the IC50 in test [1] is no less than 1000 nM; in test [2], less than 100 nM; in test [3], less than 100 nM; in test [4] it was 100 to 1000 nM.
`CNc1ccc(-n2c(=O)c(-c3ccc4nn(C)cc4c3)nc3ccc(OCC(F)(F)F)nc32)cn1` [Example 348, 2-(2-methyl-2H-indazol-5-yl)-4-(6-(methylamino)pyridin-3-yl)-6-(2,2,2-trifluoroethoxy)pyrido[2,3-b]pyrazin-3(4H)-one]: the IC50 was no less than 1000 nM in test [1], less than 100 nM in test [2], less than 100 nM in test [3] and less than 100 nM in test [4].
Consider `COc1ccc(-n2c(=O)c(-c3ccc4nc(N)n(C)c4c3)nc3ccc(OCC(F)(F)F)nc32)cc1` [Example 351, 2-(2-amino-1-methyl-1H-benzo[d]imidazol-6-yl)-4-(4-methoxyphenyl)-6-(2,2,2-trifluoroethoxy)pyrido[2,3-b]pyrazin-3(4H)-one], for which the IC50 is no less than 1000 nM in test [1], less than 100 nM in test [2], less than 100 nM in test [3] and less than 100 nM in test [4].
Take `COc1ccc(-n2c(=O)c(-c3ccc4nn(C)cc4c3)nc3c(N)cc(OCC(F)(F)F)nc32)cc1` [Example 352, 8-amino-4-(4-methoxyphenyl)-2-(2-methyl-2H-indazol-5-yl)-6-(2,2,2-trifluoroethoxy)pyrido[2,3-b]pyrazin-3(4H)-one]: the IC50 in test [1] was 100 to 1000 nM; in test [2], less than 100 nM; in test [3], less than 100 nM; in test [4], less than 100 nM.
Take `COc1ccc(-n2c(=O)c(-c3ccc4nc(N)n(C)c4c3)cc3ccc(OCC(F)(F)F)nc32)cc1` [Example 353, 3-(2-amino-1-methyl-1H-benzo[d]imidazol-6-yl)-1-(4-methoxyphenyl)-7-(2,2,2-trifluoroethoxy)-1,8-naphthyridin-2(1H)-one]: the IC50 in test [1] is no less than 1000 nM; in test [2], less than 100 nM; in test [3], less than 100 nM; in test [4], less than 100 nM.
